Data published in US9994604B2, “Pyrazolotriazolyl nucleoside analogues and oligonucleotides comprising them” (Bio-Lab Ltd., priority 2012, dated 2018).
[APT] = modified deoxyadenosine dA^PT as named in the publication

Assays:
HBV = conditions: cited from earlier work
HIV = conditions: cited from earlier work
human platelet = conditions: cited from earlier work
mouse leukemia cells = conditions: cited from earlier work
[1] = tested on: 24-mer single-stranded target DNA sequence of SEQ ID NO: 4 (X=T); assay: thermal denaturation (melting) studies of DNA duplexes followed by absorption spectroscopy; type: binding; conditions: duplex with SEQ ID NO: 4 (X=T); 1 μM each strand, 10 mM sodium phosphate pH 7, 150 mM NaCl, 1 mM EDTA; 260 nm
Procedure: Oligonucleotide concentrations were 1 μM (each strand) in a 10 mM sodium phosphate, pH 7, buffer containing 150 mM NaCl and 1 mM EDTA. Temperature was increased from 10° C. to 80° C. over 140 min. Melting curves were recorded at X, =260 nm.
The influence of dA replacement (one or two) by the pyrazolo[1,5-a]-1,3,5-triazine derivative (dA^PT) on duplex stability was investigated by thermal denaturation studies, followed by absorption spectroscopy, using DNA duplexes obtained by mixing the modified oligonucleotides of SEQ ID NOs. 1 and 2 with the 24-mer single-stranded target DNA sequence of SEQ ID NO: 4 (X=T). The natural deoxyadenosine was also incorporated in the same positions (SEQ ID NO: 5) for comparison (duplex obtained by hybridization of the oligonucleotides of SEQ ID NOs: 4+5).

[2] = tested on: oligonucleotide of SEQ ID NO: 4 (X=T); assay: CD spectra of DNA duplexes; type: physicochemical; conditions: 4 μM each strand, 10 mM sodium phosphate pH 7, 150 mM NaCl, 1 mM EDTA, 10° C., 220-300 nm; compared with unmodified duplex 4+5
From the text: CD spectra of the DNA duplexes obtained from the hybridization of the oligonucleotides of SEQ ID NOs: 4+1 and 4+2, containing one or two dA^PT, respectively, were compared to that of the parent unmodified duplex obtained by hybridization of the oligonucleotides of SEQ ID NOs: 4+5.

[3] = acidic hydrolysis (stability of the glycosidic bond); type: physicochemical; conditions: 80% acetic acid at 65° C. for 45 hr followed by concentrated ammonium hydroxide
From the text: In order to study the stability of the glycosidic bond of the dA^PT described above in acidic conditions, compared with that of dA, two oligonucleotides containing a single incorporation of either dA^PT (SEQ ID NO: 3) or the natural dA (SEQ ID NO: 6) were synthesized.

Nc1ncnc2c([C@H]3O[C@@H](CO)[C@H](O)[C@@H]3O)cnn12 [4-amino-8-(β-L-ribofuranosyl)pyrazolo[1,5-a]-1,3,5-triazine]
anti-HBV activity (HBV): no significant | anti-HIV activity (HIV): no significant

CNc1nc(C)nc2c([C@H]3C[C@H](OP(=O)(O)O)[C@@H](COP(=O)(O)O)O3)cnn12 [compound 2, 8-(2′-deoxy-β-D-ribofuranosyl)-2-methyl-4-(N-methylamino)pyrazolo[1,5-a]-1,3,5-triazine-3′,5′-bisphosphate]
inhibition of ADP-induced human platelet aggregation (human platelet): strongly inhibits | inhibition of ADP-induced human platelet shape change (human platelet): strongly inhibits

Nc1ncnc2c([C@@H]3O[C@H](CO)[C@@H](O)[C@H]3O)cnn12 [compound 10, 4-amino-8-(β-D-ribofuranosyl)pyrazolo[1,5-a]-1,3,5-triazine]
activity compared with formycin (mouse leukemia cells; all systems tested): more active than formycin | inhibitory activity against various mouse leukemia cells (mouse leukemia cells): moderate inhibitory activity

SEQ ID NO: 1: 18-mer 5′d-(TAC CGC GTG CAA^PT CCC TCT)3′ with one dA^PT incorporation (DNA TACCGCGTGCATCCCTCT; DNA, [APT] at 12, backbone not given here)
melting temperature [Tm] [1]: 69.6 °C | duplex form from CD spectra [2]: still forms a B-form duplex

SEQ ID NO: 2: 18-mer 5′d-(TA^PTC CGC GTG CAA^PT CCC TCT)3′ with two dA^PT incorporations (DNA TNCCGCGTGCANCCCTCT; listed as DNA, chemistry not fully specified)
melting temperature [Tm] [1]: 69.3 °C | duplex form from CD spectra [2]: still forms a B-form duplex

SEQ ID NO: 3: 5′d-(TTC CTC TTT CTA^PT CCC TCT)3′, a sole dA^PT and no other purine (DNA TTCCTCTTTCTNCCCTCT; listed as DNA, chemistry not fully specified)
stability in acidic conditions (degradation) [3]: not degraded

SEQ ID NO: 5: unmodified 5′d-(TAC CGC GTG CAA CCC TCT)3′ with natural deoxyadenosine (DNA TACCGCGTGCAACCCTCT; DNA, backbone not given here)
melting temperature [Tm] [1]: 69 °C

SEQ ID NO: 6: unmodified 5′d-(TTC CTC TTT CTA CCC TCT)3′ with natural dA (DNA TTCCTCTTTCTACCCTCT; DNA, backbone not given here)
stability in acidic conditions (degradation) [3]: fully fragmented
